Reference: patent publication US20230002360A1, “Heterocycloalkyl compounds as CCR2 / CCR5 antagonists” (SHENZHEN LINGFANG BIOTECH CO.,LTD, priority 2019, published 2023)

How the values were obtained:
[1] = target: T1, CCR2 (Homo sapiens, UniProt P41597); experiment: FLIPR calcium assay, CCR2 cell line; format: cell-based; conditions: HEK293 host cell, MCP-1 agonist, intracellular calcium signal; read-out: IC50 (nM) test results for FLIPR detection, CCR2
T1 construct: expressed in transfected cells; host or cells: HEK293 (clone C7, passage P6)
T1 sequence (P41597 whole entry, species assumed): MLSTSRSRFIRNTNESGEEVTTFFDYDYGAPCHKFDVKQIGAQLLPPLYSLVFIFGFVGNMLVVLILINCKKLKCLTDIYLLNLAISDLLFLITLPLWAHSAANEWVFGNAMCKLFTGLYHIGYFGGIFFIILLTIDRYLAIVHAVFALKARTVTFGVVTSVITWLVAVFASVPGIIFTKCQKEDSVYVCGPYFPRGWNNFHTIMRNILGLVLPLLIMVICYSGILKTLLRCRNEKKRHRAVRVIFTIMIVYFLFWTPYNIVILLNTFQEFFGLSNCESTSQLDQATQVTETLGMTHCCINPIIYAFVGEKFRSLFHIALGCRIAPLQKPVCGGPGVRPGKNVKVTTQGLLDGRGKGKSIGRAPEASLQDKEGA
Description: (§1) The changes in intracellular calcium signal were detected by FLIPR Calcium assay, and the compound's IC50 value was used as an indicator to evaluate inhibitory effect of the compound on CCR2 and CCR5 receptors.
(§2) 1, Cell line: Cells were seeded and incubated overnight in an incubator at 37° C. and 5% CO2.
(§3) CCR2/CCR5 density: 1 M (20K/Well)
(§4) 2, Reagents: Fluo-4 Direct, (Invitrogen, Cat #f10471)
(§5) The compound was dissolved in DMSO to prepare a 10 mM solution, and the compound solution was placed in a nitrogen gas box.
(§6) MCP-1 was serially diluted with FLIPR assay buffer starting from 0.5 μM at a dilution ratio of 1:2 and a total of 10 gradients were diluted (final 100 nM). RANTES is serially diluted with FLIPR assay buffer starting from 0.5 μM at a dilution ratio of 1:3 and a total of 10 gradients were diluted (final 100 nM). According to the compound plate-map, 20 μL of the serially diluted compound buffers were added to each well of the DRC plate respectively.
(§7) The standard compound was diluted with DMSO 1:3 starting from 1 mM at a dilution ratio of 1:3 and a total of 11 gradients were diluted. The test compound was diluted with DMSO 1:3 starting from 2 mM at a dilution ratio of 1:3 and a total of 11 gradients were diluted.
(§8) c) taking the cell plate from the incubator, and gently distributing 20 μL of 2× Fluo-4 Direct non-washing loading buffer to each well of the 384-well cell culture plate using a pipette, wherein each of wells in the cell plate has a final volume of 40 μL.
(§9) d) Incubating at 37° C. and 5% CO2 for 50 minutes, and at room temperature for 10 minutes.
(§10) e) removing the cell plate from the incubator and placing in FLIPR, and putting the composite plate and the tip box into FLIPR.
(§11) 5) Calculating from Read 90 to the maximum allowable “maximum-minimum”, and calculating the EC80 value of each of cell lines by using FLIPR
(§12) 6) Preparing the reference agonist compound at a concentration of 5×EC80
(§13) 2) Transferring […] of the reference agonist compound at a concentration of 5×EC80 from the composite plate to the cell plate.
(§14) 3) Reading the fluorescence signal.
(§15) 4) Calculating from Read 90 to the maximum allowable “maximum-minimum”.
(§16) h) Analyzing the data and calculating the IC50 value of the compound by using Prism.

[2] = target: T2, CCR5 (Homo sapiens, UniProt P51681); experiment: FLIPR calcium assay, CCR5 cell line; format: cell-based; conditions: HEK293 host cell, RANTES agonist, intracellular calcium signal; read-out: IC50 (nM) test results for FLIPR detection, CCR5
T2 construct: expressed in transfected cells; host or cells: HEK293 (clone C13, passage P4)
T2 sequence (P51681 whole entry, species assumed): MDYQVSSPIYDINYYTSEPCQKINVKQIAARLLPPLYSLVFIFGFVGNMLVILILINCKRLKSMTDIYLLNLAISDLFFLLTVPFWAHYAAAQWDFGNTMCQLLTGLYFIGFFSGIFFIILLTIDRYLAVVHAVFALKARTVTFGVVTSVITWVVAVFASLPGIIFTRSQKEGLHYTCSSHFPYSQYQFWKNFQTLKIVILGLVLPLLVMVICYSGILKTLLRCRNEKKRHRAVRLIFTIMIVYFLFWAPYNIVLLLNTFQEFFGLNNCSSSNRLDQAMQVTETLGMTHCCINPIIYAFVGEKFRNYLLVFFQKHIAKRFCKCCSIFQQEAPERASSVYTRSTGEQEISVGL
Description: as §1, §2, §3, §4, §5, §6, §7, §8, §9, §10, §11, §12, §13, §14, §15, §16

[3] = target: T3, CYP2D6 (Homo sapiens, UniProt P10635); experiment: Inhibition of human liver microsomal CYP2D6 (dextromethorphan probe); format: in vitro ADME; conditions: human liver microsomes, read-out: Half inhibitory concentration IC50, CYP2D6
T3 construct: from tissue; host or cells: human liver microsomes
T3 sequence (P10635 whole entry): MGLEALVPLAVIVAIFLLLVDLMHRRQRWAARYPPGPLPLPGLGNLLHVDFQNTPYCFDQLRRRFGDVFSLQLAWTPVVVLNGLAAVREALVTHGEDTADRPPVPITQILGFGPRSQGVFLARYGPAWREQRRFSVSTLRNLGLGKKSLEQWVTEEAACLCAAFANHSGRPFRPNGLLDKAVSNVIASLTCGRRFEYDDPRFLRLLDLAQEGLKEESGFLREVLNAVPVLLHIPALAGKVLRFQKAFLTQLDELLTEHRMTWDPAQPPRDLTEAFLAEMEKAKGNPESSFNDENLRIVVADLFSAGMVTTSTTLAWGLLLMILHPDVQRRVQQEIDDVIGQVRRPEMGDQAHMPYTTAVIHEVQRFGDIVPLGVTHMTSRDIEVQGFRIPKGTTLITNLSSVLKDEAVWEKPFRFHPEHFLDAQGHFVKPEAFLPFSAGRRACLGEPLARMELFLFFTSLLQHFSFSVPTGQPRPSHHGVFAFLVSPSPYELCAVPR
Description: (§17) Experimental Example 2. Inhibition of human liver microsomal cytochrome P450 isoenzymes (CYP1A2, CYP2C9, CYP2C19, CYP2D6 and CYP3A4) activity
(§18) A total of 5 specific probe substrates of 5 CYP isozymes, which are phenacetin (PHenacetin, CYP1A2), diclofenac (Diclofenac, CYP2C9), (S)-mephenytoin ((S)-MepHenytoin, CYP2C19), dextromethorpHan (CYP2D6), and midazolam (Midazolam, CYP3A4), were incubated with human liver microsomes respectively. Then, reduced nicotinamide adenine dinucleotide phosphate (NADPH) was added to initiate reaction. After the reaction, the sample is processed and quantitatively detected for the concentrations of the five metabolites produced from the specific substrate, acetaminophen (AcetaminopHen), 4′-hydroxydiclofenac (4′-Hydroxydiclofenac), 4′-Hydroxymephenytoin (4′-HydroxymepHenytoin), Dextrorphan (DextrorpHan), and 1′-Hydroxymidazolam (1′-Hydroxymidazolam) by liquid chromatography-quadrupole mass spectrometry (LC-MS/MS) method to calculate the corresponding half inhibitory concentration (IC50).

[4] = target: T4, CYP1A2 (Homo sapiens, UniProt P05177); experiment: Inhibition of human liver microsomal CYP1A2 (phenacetin probe); format: in vitro ADME; conditions: human liver microsomes, read-out: Half inhibitory concentration IC50, CYP1A2
T4 construct: from tissue; host or cells: human liver microsomes
T4 sequence (P05177 1-516): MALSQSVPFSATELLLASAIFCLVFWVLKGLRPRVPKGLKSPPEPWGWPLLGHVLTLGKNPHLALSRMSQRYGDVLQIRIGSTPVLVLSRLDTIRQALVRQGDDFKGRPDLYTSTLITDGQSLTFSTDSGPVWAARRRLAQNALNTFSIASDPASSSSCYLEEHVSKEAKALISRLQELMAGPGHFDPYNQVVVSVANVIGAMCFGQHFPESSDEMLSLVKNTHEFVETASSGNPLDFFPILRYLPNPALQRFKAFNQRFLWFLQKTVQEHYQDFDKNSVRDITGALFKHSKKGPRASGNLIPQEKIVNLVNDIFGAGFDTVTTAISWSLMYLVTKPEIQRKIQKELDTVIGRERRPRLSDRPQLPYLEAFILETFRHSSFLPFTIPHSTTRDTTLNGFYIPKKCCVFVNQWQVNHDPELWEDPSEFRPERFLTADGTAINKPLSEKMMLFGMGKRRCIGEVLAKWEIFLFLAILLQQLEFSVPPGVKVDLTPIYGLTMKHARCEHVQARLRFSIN
Description: as §17, §18

[5] = target: T5, CYP2C9 (Homo sapiens, UniProt P11712); experiment: Inhibition of human liver microsomal CYP2C9 (diclofenac probe); format: in vitro ADME; conditions: human liver microsomes, read-out: Half inhibitory concentration IC50, CYP2C9
T5 construct: from tissue; host or cells: human liver microsomes
T5 sequence (P11712 whole entry): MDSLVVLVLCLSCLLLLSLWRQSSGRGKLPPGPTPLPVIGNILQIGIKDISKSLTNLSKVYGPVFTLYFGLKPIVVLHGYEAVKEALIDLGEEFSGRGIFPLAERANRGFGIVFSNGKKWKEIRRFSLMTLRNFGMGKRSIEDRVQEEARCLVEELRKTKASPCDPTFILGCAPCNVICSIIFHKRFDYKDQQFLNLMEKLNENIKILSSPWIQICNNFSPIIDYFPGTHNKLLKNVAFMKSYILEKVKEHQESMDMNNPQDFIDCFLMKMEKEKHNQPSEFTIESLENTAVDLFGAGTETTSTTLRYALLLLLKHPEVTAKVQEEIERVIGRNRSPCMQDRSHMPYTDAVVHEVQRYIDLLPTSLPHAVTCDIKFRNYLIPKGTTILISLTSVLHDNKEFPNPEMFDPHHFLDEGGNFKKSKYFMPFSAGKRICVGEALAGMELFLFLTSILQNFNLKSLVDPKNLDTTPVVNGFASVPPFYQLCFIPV
Description: as §17, §18

[6] = target: T6, CYP2C19 (Homo sapiens, UniProt P33261); experiment: Inhibition of human liver microsomal CYP2C19 ((S)-mephenytoin probe); format: in vitro ADME; conditions: human liver microsomes, read-out: Half inhibitory concentration IC50, CYP2C19
T6 construct: from tissue; host or cells: human liver microsomes
T6 sequence (P33261 whole entry): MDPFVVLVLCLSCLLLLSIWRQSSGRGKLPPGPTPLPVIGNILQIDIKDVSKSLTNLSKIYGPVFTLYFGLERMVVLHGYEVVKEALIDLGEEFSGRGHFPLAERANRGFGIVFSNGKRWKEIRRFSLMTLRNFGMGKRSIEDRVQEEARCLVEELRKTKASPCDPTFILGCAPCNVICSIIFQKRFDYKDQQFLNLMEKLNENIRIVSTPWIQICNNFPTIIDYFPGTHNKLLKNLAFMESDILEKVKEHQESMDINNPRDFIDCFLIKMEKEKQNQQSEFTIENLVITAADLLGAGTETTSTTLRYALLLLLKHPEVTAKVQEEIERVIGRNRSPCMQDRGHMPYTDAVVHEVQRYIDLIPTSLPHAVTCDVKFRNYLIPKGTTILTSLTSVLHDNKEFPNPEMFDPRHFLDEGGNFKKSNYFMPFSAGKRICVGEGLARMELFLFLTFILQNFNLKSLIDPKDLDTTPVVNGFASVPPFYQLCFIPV
Description: as §17, §18

[7] = target: T7, CYP3A4 (Homo sapiens, UniProt P08684); experiment: Inhibition of human liver microsomal CYP3A4 (midazolam probe); format: in vitro ADME; conditions: for inhibitory effect on CYP3A4 (in words): conclusion from Table 2; for IC50: human liver microsomes, midazolam, read-out: Half inhibitory concentration IC50, CYP3A4-M
T7 construct: from tissue; host or cells: human liver microsomes
T7 sequence (P08684 whole entry): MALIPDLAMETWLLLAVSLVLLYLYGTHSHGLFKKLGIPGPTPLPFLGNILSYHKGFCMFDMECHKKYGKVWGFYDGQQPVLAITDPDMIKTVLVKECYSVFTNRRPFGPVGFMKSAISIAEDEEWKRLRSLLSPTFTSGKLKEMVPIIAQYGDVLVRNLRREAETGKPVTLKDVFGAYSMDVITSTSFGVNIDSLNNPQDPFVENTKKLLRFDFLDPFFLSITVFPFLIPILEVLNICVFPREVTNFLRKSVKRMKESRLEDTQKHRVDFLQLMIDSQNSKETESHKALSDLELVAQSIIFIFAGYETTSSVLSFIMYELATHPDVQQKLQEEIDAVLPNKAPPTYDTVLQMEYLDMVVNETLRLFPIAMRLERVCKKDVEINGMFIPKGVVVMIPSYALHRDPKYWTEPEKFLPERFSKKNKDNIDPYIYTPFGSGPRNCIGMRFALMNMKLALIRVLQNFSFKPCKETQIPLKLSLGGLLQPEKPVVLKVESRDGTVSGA
Description: Inhibition of human liver microsomal cytochrome P450 isoenzymes (CYP1A2, CYP2C9, CYP2C19, CYP2D6 and CYP3A4) activity
A total of 5 specific probe substrates of 5 CYP isozymes, which are phenacetin (PHenacetin, CYP1A2), diclofenac (Diclofenac, CYP2C9), (S)-mephenytoin ((S)-MepHenytoin, CYP2C19), dextromethorpHan (CYP2D6), and midazolam (Midazolam, CYP3A4), were incubated with human liver microsomes respectively. Then, reduced nicotinamide adenine dinucleotide phosphate (NADPH) was added to initiate reaction.

[8] = tested on: human liver microsomal cytochrome P450 isoenzymes; experiment: Inhibition of human liver microsomal cytochrome P450 isoenzymes, overall conclusion; format: in vitro ADME; conditions: conclusion from Table 2
Description: as §17, §18

Row | SMILES | IC50 [1] [nM] | IC50 [2] [nM] | other results
1 | CCCCOCCOc1ccc(-c2ccc3c(c2)C=C(C(=O)Nc2ccc([S@+]([O-])Cc4c(C)ncn4CC)cc2)CCN3CC2CCN(C)CC2)cc1 [WX018] | 17.9 | 3.35 | 
2 | CCCCOCCOc1ccc(-c2ccc3c(c2)/C=C(/C(=O)Nc2ccc([S@+]([O-])Cc4c(C)ncn4CC)cc2)CCCCN3CC2COC2)cc1 [WX005] | 9.2 | 4.2 | 
3 | CCCCOCCOc1ccc(-c2ccc3c(c2)/C=C(/C(=O)Nc2ccc([S@@+]([O-])Cc4c(C)ncn4CC)cc2)CCCN3CC2CCOCC2)cc1 [WX017] | 2.47 |  | 
4 | CCCCOCCOc1ccc(-c2ccc3c(c2)/C=C(/C(=O)Nc2ccc([S@+]([O-])Cc4c(C)ncn4CC)cc2)CCCCN3CC2CCCOC2)cc1 (some centres unmarked) [WX006] | 7.51 | 8.44 | 
5 | CCCCOCCOc1ccc(-c2ccc3c(c2)/C=C(/C(=O)Nc2ccc([S@+]([O-])Cc4c(C)ncn4CC)cc2)CCCCN3CC2CCCOC2)cc1 (some centres unmarked) [WX007] | 6.76 | 6.18 | 
6 | CCCCOCCOc1ccc(-c2ccc3c(c2)/C=C(/C(=O)Nc2ccc([S@@+]([O-])Cc4cncn4CCC)cc2)CCCN3CC2CC2)cc1 [Reference A, reference compound] |  |  | IC50 [3]: > 50000 nM; IC50 [4]: > 50000 nM; IC50 [5]: > 50000 nM; IC50 [6]: > 50000 nM; inhibitory effect on CYP3A4 (in words) [7]: strong inhibitory effect; IC50 [7]: 786 nM
7 | CCCCOCCOc1ccc(-c2ccc3c(c2)/C=C(/C(=O)Nc2ccc([S@+]([O-])Cc4c(C)ncn4CC)cc2)CCCN3CC2CCOC2)cc1 (some centres unmarked) [WX013] | 3.11 | 5.45 | 
8 | CCCCOCCOc1ccc(-c2ccc3c(c2)/C=C(/C(=O)Nc2ccc([S@+]([O-])Cc4c(C)ncn4CC)cc2)CCCN3CC2COCCO2)cc1 (some centres unmarked) [WX025] | 0.69 | 1.38 | 
9 | CCCCOCCOc1ccc(-c2ccc3c(c2)/C=C(/C(=O)Nc2ccc([S@+]([O-])Cc4c(C)ncn4CC)cc2)CCCN3CC2CCN(C)CC2)cc1 [WX009] | 4.38 | 6.78 | 
10 | CCCCOCCOc1ccc(-c2ccc3c(c2)/C=C(/C(=O)Nc2ccc([S@+]([O-])Cc4c(C)ncn4CC)cc2)CCCN3CC2COC2)cc1 [WX004] | 3.04 | 6.3 | 
11 | CCCCOCCOc1ccc(-c2ccc3c(c2)/C=C(/C(=O)Nc2ccc([S@+]([O-])Cc4c(C)ncn4CC)cc2)CCCN3CC2CCOCC2)cc1 [WX001] | 1.33 | 4.25 | IC50 [3]: > 50000 nM; IC50 [4]: > 50000 nM; IC50 [5]: > 50000 nM; IC50 [6]: 1420 nM; inhibitory effect on CYP3A4 (in words) [7]: no inhibitory effect; IC50 [7]: > 50000 nM
12 | CCCCOCCOc1ccc(-c2ccc3c(c2)/C=C(/C(=O)Nc2ccc([S@@+]([O-])Cc4cncn4CCC)cc2)CCCN3CC(C)C)cc1 [(CVC), Cenicriviroc, reference compound] |  |  | IC50 [3]: > 50000 nM; IC50 [4]: > 50000 nM; IC50 [5]: > 50000 nM; IC50 [6]: > 50000 nM; inhibitory effect on CYP3A4 (in words) [7]: strong inhibitory effect; IC50 [7]: 750 nM
13 | CCCCOCCOc1ccc(-c2ccc3c(c2)/C=C(/C(=O)Nc2ccc([S@+]([O-])Cc4c(C)ncn4CC)cc2)CCCN3CC2COCCO2)cc1 (some centres unmarked) [WX026] | 0.69 | 1.37 | 
14 | CCCCOCCOc1ccc(-c2ccc3c(c2)/C=C(/C(=O)Nc2ccc([S@+]([O-])Cc4c(C)ncn4CC)cc2)CCCN3C[C@H]2CCCO2)cc1 [WX028] | 1.19 | 3.15 | 
15 | CCCCOCCOc1ccc(-c2ccc3c(c2)/C=C(/C(=O)Nc2ccc([S@+]([O-])Cc4c(C)ncn4CC)cc2)CCCN3CC2CCCO2)cc1 (some centres unmarked) [WX027] | 0.41 | 1.44 | 
16 | CCCCOCCOc1ccc(-c2ccc3c(c2)/C=C(/C(=O)Nc2ccc([S@@+]([O-])Cc4c(C)ncn4CC)cc2)CCCN3CC2CCOCC2)cc1 [WX002] | 3 |  | IC50 [3]: > 50000 nM; risk of inhibiting the activity of human liver microsomal cytochrome P450 isoenzymes (in words) [8]: no risk of inhibiting the activity; IC50 [4]: > 50000 nM; IC50 [5]: 10900 nM; IC50 [6]: > 50000 nM; IC50 [7]: 13300 nM
17 | CCCCOCCOc1ccc(-c2ccc3c(c2)/C=C(/C(=O)Nc2ccc([S@+]([O-])Cc4c(C)ncn4CC)cc2)CCCN3CC2CCCCO2)cc1 (some centres unmarked) [WX008] | 3.4 | 6.04 | 
18 | CCCCOCCOc1ccc(-c2ccc3c(c2)/C=C(/C(=O)Nc2ccc([S@+]([O-])Cc4c(C)ncn4CC)cc2)CCCN3CC2CCOC2)cc1 (some centres unmarked) [WX014] | 3.78 | 6.28 | 
19 | CCCCOCCOc1ccc(-c2ccc3c(c2)C=C(C(=O)Nc2ccc([S@+]([O-])Cc4c(C)ncn4CC)cc2)CCN3CC2CCCOC2)cc1 (some centres unmarked) [WX003] | 37 | 8.27 | 
